Inhibition data for 30 molecules are collected here from patent publication US8686150B2 (Sanofi, priority 2011, dated 2014).

For this experiment, the target named is T1, human full-length recombinant PKC βII (Homo sapiens, UniProt P05771).
T1 construct: Active human full-length recombinant PKC βII; purchased Invitrogen GmbH, Darmstadt, Germany
The experiment in a line: Determination of PKC βII inhibition (Caliper mobility-shift kinase assay, Fluorescein-RFARKGSLRQKNV peptide substrate). The experiment is classed as biochemical. The following applies: example compounds at a final concentration of 1.14 μM (±0.15 μM). The essentials:
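Compounds were tested at 1.14 μM final. Enzyme was activated by PS, DAG and CaCl2 in Hepes pH 7.4 with MgCl2, with substrate 3 μM and ATP 120 μM as pre-mix concentrations. After 60 min at 32 °C and an EDTA stop, Caliper separation gave fractional turnover, which was normalised to no-compound and no-enzyme controls.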

T1 sequence (P05771 1-673 isoform P05771-2): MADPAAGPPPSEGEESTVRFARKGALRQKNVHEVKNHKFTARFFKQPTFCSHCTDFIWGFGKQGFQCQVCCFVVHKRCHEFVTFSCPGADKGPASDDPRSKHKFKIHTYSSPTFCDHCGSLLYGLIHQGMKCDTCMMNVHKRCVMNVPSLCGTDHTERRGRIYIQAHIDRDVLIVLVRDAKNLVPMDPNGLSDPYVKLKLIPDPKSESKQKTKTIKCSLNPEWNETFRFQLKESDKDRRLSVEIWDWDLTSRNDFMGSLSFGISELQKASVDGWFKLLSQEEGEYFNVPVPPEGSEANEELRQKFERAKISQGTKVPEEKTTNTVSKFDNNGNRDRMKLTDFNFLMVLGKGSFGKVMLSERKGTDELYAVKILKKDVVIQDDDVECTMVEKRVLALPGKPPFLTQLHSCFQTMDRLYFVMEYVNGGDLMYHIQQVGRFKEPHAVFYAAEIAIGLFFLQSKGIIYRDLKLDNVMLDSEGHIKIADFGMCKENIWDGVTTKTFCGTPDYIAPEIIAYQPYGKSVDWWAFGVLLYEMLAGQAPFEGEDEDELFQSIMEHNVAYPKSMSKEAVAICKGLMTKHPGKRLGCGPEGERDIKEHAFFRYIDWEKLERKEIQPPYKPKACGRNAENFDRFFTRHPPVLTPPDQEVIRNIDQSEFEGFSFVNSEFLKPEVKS

Regarding `Cc1n[nH]c2nc(-c3ccc(O)cc3)cc(C(=O)NC3CCN(Cc4ccccc4)CC3)c12` [Example 392, 6-(4-Hydroxy-phenyl)-3-methyl-1H-pyrazolo[3,4-b]pyridine-4-carboxylic acid (1-benzyl-piperidin-4-yl)-amide], the inhibition (as a rule, how much of the control response was suppressed) at 1.14 µM is 49%. With `Cc1n[nH]c2nc(-c3ccc(O)cc3)cc(C(=O)NCC(c3ccccc3)N3CCNCC3)c12` (stereo not drawn) [Example 393, 6-(4-Hydroxy-phenyl)-3-methyl-1H-pyrazolo[3,4-b]pyridine-4-carboxylic acid (2-phenyl-2-piperazin-1-yl-ethyl)-amide], the inhibition at 1.14 µM came out at 55%. As for `Cc1n[nH]c2nc(-c3ccc(O)cc3)cc(C(=O)NCC(c3ccccc3)N3CCOCC3)c12` (stereo not drawn) [Example 394, 6-(4-Hydroxy-phenyl)-3-methyl-1H-pyrazolo[3,4-b]pyridine-4-carboxylic acid (2-morpholin-4-yl-2-phenyl-ethyl)-amide], the inhibition at 1.14 µM is 23%. Take `Cc1n[nH]c2nc(-c3ccc(O)cc3)cc(C(=O)NCCC3CCNCC3)c12` [Example 395, 6-(4-Hydroxy-phenyl)-3-methyl-1H-pyrazolo[3,4-b]pyridine-4-carboxylic acid (2-piperidin-4-yl-ethyl)-amide]: the inhibition at 1.14 µM worked out at 42%. Regarding `Cc1n[nH]c2nc(-c3ccc(O)cc3)cc(C(=O)NC3CCC(N(C)C)CC3)c12` (stereo not drawn) [Example 396, 6-(4-Hydroxy-phenyl)-3-methyl-1H-pyrazolo[3,4-b]pyridine-4-carboxylic acid (4-dimethylamino-cyclohexyl)-amide], the inhibition at 1.14 µM stood at 39%. With `C[C@H]1CN(C(=O)c2cc(-c3ccc(O)cc3)nc3[nH]nc(C(F)(F)F)c23)CCN1` [Example 397, [6-(4-Hydroxy-phenyl)-3-trifluoromethyl-1H-pyrazolo[3,4-b]pyridin-4-yl]-((S)-3-methyl-piperazin-1-yl)-methanone] the figure was 73%. `O=C(N[C@@H]1CCCNC1)c1cc(-c2ccc(O)cc2)nc2[nH]nc(C(F)(F)F)c12` [Example 398, 6-(4-Hydroxy-phenyl)-3-trifluoromethyl-1H-pyrazolo[3,4-b]pyridine-4-carboxylic acid (R)-piperidin-3-ylamide]: the inhibition at 1.14 µM turned out to be 21%. In the case of `NC1CCN(C(=O)c2cc(-c3ccc(O)cc3)nc3[nH]nc(C(F)(F)F)c23)CC1` [Example 399, (4-Amino-piperidin-1-yl)-[6-(4-hydroxy-phenyl)-3-trifluoromethyl-1H-pyrazolo[3,4-b]pyridin-4-yl]-methanone], the inhibition at 1.14 µM was found to be 60%. For the molecule `O=C(c1cc(-c2ccc(O)cc2)nc2[nH]nc(C(F)(F)F)c12)N1CC2CNCC2C1` (stereo not drawn) [Example 400, (Hexahydro-pyrrolo[3,4-c]pyrrol-2-yl)-[6-(4-hydroxy-phenyl)-3-trifluoromethyl-1H-pyrazolo[3,4-b]pyridin-4-yl]-methanone], the inhibition at 1.14 µM is 62%. Take `C[C@@H]1CN(C(=O)c2cc(-c3ccc(O)cc3)nc3[nH]nc(C(F)(F)F)c23)CCN1` [Example 401, [6-(4-Hydroxy-phenyl)-3-trifluoromethyl-1H-pyrazolo[3,4-b]pyridin-4-yl]-((R)-3-methyl-piperazin-1-yl)-methanone]: the inhibition at 1.14 µM was 71%. With `O=C(NC1CNC1)c1cc(-c2ccc(O)cc2)nc2[nH]nc(C(F)(F)F)c12` [Example 402, 6-(4-Hydroxy-phenyl)-3-trifluoromethyl-1H-pyrazolo[3,4-b]pyridine-4-carboxylic acid azetidin-3-ylamide], the inhibition at 1.14 µM stood at 41%. For `O=C(c1cc(-c2ccc(O)cc2)nc2[nH]nc(C(F)(F)F)c12)N1CC2(CCNCC2)C1` [Example 403, (2,7-Diaza-spiro[3.5]non-2-yl)-[6-(4-hydroxy-phenyl)-3-trifluoromethyl-1H-pyrazolo[3,4-b]pyridin-4-yl]-methanone], the inhibition at 1.14 µM worked out at 55%. For `N[C@H]1CCN(C(=O)c2cc(-c3ccc(O)cc3)nc3[nH]nc(C(F)(F)F)c23)C1` [Example 404, ((S)-3-Amino-pyrrolidin-1-yl)-[6-(4-hydroxy-phenyl)-3-trifluoromethyl-1H-pyrazolo[3,4-b]pyridin-4-yl]-methanone], the inhibition at 1.14 µM is 31%. On to `O=C(c1cc(-c2ccc(O)cc2)nc2[nH]nc(C(F)(F)F)c12)N1CCC2(CC1)CNC2` [Example 405, (2,7-Diaza-spiro[3.5]non-7-yl)-[6-(4-hydroxy-phenyl)-3-trifluoromethyl-1H-pyrazolo[3,4-b]pyridin-4-yl]-methanone], for which the inhibition at 1.14 µM was 48%. For the molecule `CNC1CCN(C(=O)c2cc(-c3ccc(O)cc3)nc3[nH]nc(C(F)(F)F)c23)C1` (stereo not drawn) [Example 406, [6-(4-Hydroxy-phenyl)-3-trifluoromethyl-1H-pyrazolo[3,4-b]pyridin-4-yl]-(3-methylamino-pyrrolidin-1-yl)-methanone], the inhibition at 1.14 µM worked out at 47%. For the molecule `O=C(c1cc(-c2ccc(O)cc2)nc2[nH]nc(C(F)(F)F)c12)N1CCC2(CCCNC2)C1` (stereo not drawn) [Example 407, (2,7-Diaza-spiro[4.5]dec-2-yl)-[6-(4-hydroxy-phenyl)-3-trifluoromethyl-1H-pyrazolo[3,4-b]pyridin-4-yl]-methanone], the inhibition at 1.14 µM is 20%. In the case of `O=C(c1cc(-c2ccc(O)cc2)nc2[nH]nc(C(F)(F)F)c12)N1CCC2CNCC21` (stereo not drawn) [Example 408, (Hexahydro-pyrrolo[3,4-b]pyrrol-1-yl)-[6-(4-hydroxy-phenyl)-3-trifluoromethyl-1H-pyrazolo[3,4-b]pyridin-4-yl]-methanone], the inhibition at 1.14 µM worked out at 21%. For `O=C(c1cc(-c2ccc(O)cc2)nc2[nH]nc(C(F)(F)F)c12)N1CCC2(CCNCC2)C1` [Example 409, (2,8-Diaza-spiro[4.5]dec-2-yl)-[6-(4-hydroxy-phenyl)-3-trifluoromethyl-1H-pyrazolo[3,4-b]pyridin-4-yl]-methanone] the value was 23%; for `O=C(c1cc(-c2ccc(O)cc2)nc2[nH]nc(C(F)(F)F)c12)N1CCC2(CCNC2)CC1` [Example 410, (2,8-Diaza-spiro[4.5]dec-8-yl)-[6-(4-hydroxy-phenyl)-3-trifluoromethyl-1H-pyrazolo[3,4-b]pyridin-4-yl]-methanone], 20%; for `O=C(c1cc(-c2ccc(O)cc2)nc2[nH]nc(C(F)(F)F)c12)N1CCC2(CCNCC2)CC1` [Example 411, (3,9-Diaza-spiro[5.5]undec-3-yl)-[6-(4-hydroxy-phenyl)-3-trifluoromethyl-1H-pyrazolo[3,4-b]pyridin-4-yl]-methanone], 24%.

`O=C(N[C@@H]1CN2CCC1CC2)c1cc(-c2ccc(O)cc2)nc2[nH]nc(C(F)(F)F)c12` [Example 412, 6-(4-Hydroxy-phenyl)-3-trifluoromethyl-1H-pyrazolo[3,4-b]pyridine-4-carboxylic acid [(S)-1-aza-bicyclo[2.2.2]oct-3-yl]-amide]: the inhibition at 1.14 µM worked out at 23%. With `O=C(N[C@H]1CN2CCC1CC2)c1cc(-c2ccc(O)cc2)nc2[nH]nc(C(F)(F)F)c12` [Example 413, 6-(4-Hydroxy-phenyl)-3-trifluoromethyl-1H-pyrazolo[3,4-b]pyridine-4-carboxylic acid [(R)-1-aza-bicyclo[2.2.2]oct-3-yl]-amide] the figure was 29%. Turning to `CCN1CCCN(C(=O)c2cc(-c3ccc(O)cc3)nc3[nH]nc(C(F)(F)F)c23)CC1` [Example 414, (4-Ethyl-[1,4]diazepan-1-yl)-[6-(4-hydroxy-phenyl)-3-trifluoromethyl-1H-pyrazolo[3,4-b]pyridin-4-yl]-methanone], the inhibition at 1.14 µM amounted to 30%. For the molecule `Cc1n[nH]c2nc(-c3ccc(O)cc3F)cc(C(=O)N3CCC(N)(c4ccccc4)CC3)c12` [Example 415, (4-Amino-4-phenyl-piperidin-1-yl)-[6-(2-fluoro-4-hydroxy-phenyl)-3-methyl-1H-pyrazolo[3,4-b]pyridin-4-yl]-methanone], the inhibition at 1.14 µM was 90%. As to `CCC1(N)CCN(C(=O)c2cc(-c3ccc(O)cc3F)nc3[nH]nc(C)c23)CC1` [Example 416, (4-Amino-4-ethyl-piperidin-1-yl)-[6-(2-fluoro-4-hydroxy-phenyl)-3-methyl-1H-pyrazolo[3,4-b]pyridin-4-yl]-methanone], the inhibition at 1.14 µM turned out to be 84%. On to `Cc1n[nH]c2nc(-c3ccc(O)cc3F)cc(C(=O)N3[C@@H]4CC[C@H]3CNC4)c12` [Example 417, 3,8-Diaza-bicyclo[3.2.1]oct-8-yl-[6-(2-fluoro-4-hydroxy-phenyl)-3-methyl-1H-pyrazolo[3,4-b]pyridin-4-yl]-methanone], for which the inhibition at 1.14 µM was 78%.

As for `Cc1n[nH]c2nc(-c3ccc(O)cc3F)cc(C(=O)N3CCC(C)(N)CC3)c12` [Example 418, (4-Amino-4-methyl-piperidin-1-yl)-[6-(2-fluoro-4-hydroxy-phenyl)-3-methyl-1H-pyrazolo[3,4-b]pyridin-4-yl]-methanone], the inhibition at 1.14 µM came to 30%. On to `Cc1n[nH]c2nc(-c3ccc(O)cc3F)cc(C(=O)N3C[C@H]4CNC[C@H]4C3)c12` [Example 419, [6-(2-Fluoro-4-hydroxy-phenyl)-3-methyl-1H-pyrazolo[3,4-b]pyridin-4-yl]-(3aR,6aS)-hexahydro-pyrrolo[3,4-c]pyrrol-2-yl-methanone], for which the inhibition at 1.14 µM was determined as 79%. With `CCC[C@@H]1CN(C(=O)c2cc(-c3ccc(O)cc3F)nc3[nH]nc(C)c23)CCN1` [Example 420, [6-(2-Fluoro-4-hydroxy-phenyl)-3-methyl-1H-pyrazolo[3,4-b]pyridin-4-yl]-((R)-3-propyl-piperazin-1-yl)-methanone] the figure was 80%; with `Cc1n[nH]c2nc(-c3ccc(O)cc3F)cc(C(=O)N3CCNC(c4ccccc4)C3)c12` (stereo not drawn) [Example 421, [6-(2-Fluoro-4-hydroxy-phenyl)-3-methyl-1H-pyrazolo[3,4-b]pyridin-4-yl]-(3-phenyl-piperazin-1-yl)-methanone], 51%.
